# Measured values from patent US20260294915A1, “COMBINATION THERAPY COMPRISING A MAT2A INHIBITOR AND A TOPOISOMERASE INHIBITOR, A SPLICING INHIBITOR SULFONAMIDE, OR A KIF18 INHIBITOR” (IDEAYA BIOSCIENCES, INC., priority 2023, published 2026).
# Where two headings read alike, the source gives them in different places.
# How the values were obtained:
# Assay type in all cases: cell-based
# [1] = system: 15 pancreatic, non-small cell lung, and bladder cancer cell lines: 10 MTAP null and 5 MTAP wild-type; test: 10-day proliferation screen with Compound A pre-treatment, panel summary (Example 3)
# Protocol: A 10-day proliferation screen was performed in 15 pancreatic, non-small cell lung, and bladder cancer cell lines: 10 MTAP null and 5 MTAP wild-type. Optimal cell seeding for all cell lines was determined by assessing the growth over a range of seeding densities in a 384-well format to identify conditions that permitted proliferation for 10 days. Cells were then plated at the optimal seeding density in the presence of 20-150 nM of Compound A or DMSO vehicle control. Cells were incubated at 37° C. with 5% CO2 for 4 days to allow for target engagement of the pre-treatment compound. Maintaining the pre-treatment condition, cells were also treated with an 11-point, three-fold titration series of compounds from a chemically diverse library of 424 compounds. […] A plate of cells was harvested at the time of combination compound addition to quantify the number of cells at the start of the combination (T0). For cell quantification, the harvested cells were lysed with CellTiter-Glo (CTG) (Promega) reagent according to the manufacturer's protocol and the chemiluminescent signal was detected on a Synergy Neo plate reader (ThermoFisher, serial #140715A). […] Cells were then lysed with CTG and the chemiluminescent signal was measured. CTG values obtained after the 10-day treatment were background subtracted, expressed as a percent of the T0 value, and plotted against compound concentration. […]
# [2] = system: TCCSUP; test: 10-day proliferation screen with Compound A pre-treatment (Example 3); conditions: Homo sapiens, TCC-SUP, read-out: Growth IC50
# Protocol: (§1) A 10-day proliferation screen was performed in 15 pancreatic, non-small cell lung, and bladder cancer cell lines: 10 MTAP null and 5 MTAP wild-type. Optimal cell seeding for all cell lines was determined by assessing the growth over a range of seeding densities in a 384-well format to identify conditions that permitted proliferation for 10 days. Cells were then plated at the optimal seeding density in the presence of 20-150 nM of Compound A or DMSO vehicle control. Cells were incubated at 37° C. with 5% CO2 for 4 days to allow for target engagement of the pre-treatment compound. Maintaining the pre-treatment condition, cells were also treated with an 11-point, three-fold titration series of compounds from a chemically diverse library of 424 compounds. The combination compound concentrations ranged from 0.2 nM to 14,679 nM. A plate of cells was harvested at the time of combination compound addition to quantify the number of cells at the start of the combination (T0). For cell quantification, the harvested cells were lysed with CellTiter-Glo (CTG) (Promega) reagent according to the manufacturer's protocol and the chemiluminescent signal was detected on a Synergy Neo plate reader (ThermoFisher, serial #140715A). CTG estimates cell number through detection of cellular ATP levels. Cells were incubated with the drug combinations at 37° C. with 5% CO2 for an additional 6 days for a total of a 10-day assay including the pre-treatment. Cells were then lysed with CTG and the chemiluminescent signal was measured. CTG values obtained after the 10-day treatment were background subtracted, expressed as a percent of the T0 value, and plotted against compound concentration. Data were fit with a four-parameter equation to generate concentration response curves. Growth IC50 values and maximal growth inhibition were compared between the DMSO and the Compound A pre-treated cells for each combination titration. Combination hit calling was based on the observation of >2-fold shift in growth IC50 and/or greater than 20% […] in growth inhibition.
# [3] = system: NCI-H2170; test: as above; conditions: Homo sapiens, read-out: Growth IC50
# Protocol: as §1
# [4] = system: SW900; test: as above; conditions: Homo sapiens, read-out: Growth IC50
# Protocol: as §1
# [5] = system: HuP-T4; test: as above; conditions: Homo sapiens, read-out: Growth IC50
# Protocol: as §1
# [6] = system: J82; test: as above; conditions: Homo sapiens, read-out: Growth IC50
# Protocol: as §1
# [7] = system: UMUC5; test: as above; conditions: read-out: Growth IC50
# Protocol: as §1
# [8] = system: NCI-H520; test: as above; conditions: Homo sapiens, read-out: Growth IC50
# Protocol: as §1
# [9] = system: OE33; test: as above; conditions: Homo sapiens, read-out: Growth IC50
# Protocol: as §1
# [10] = system: NCI-H2228; test: as above; conditions: Homo sapiens, read-out: Growth IC50
# Protocol: as §1
# [11] = system: RT112/84; test: as above; conditions: Homo sapiens, read-out: Growth IC50
# Protocol: as §1
# [12] = system: UMUC11; test: as above; conditions: read-out: Growth IC50
# Protocol: as §1
# [13] = system: NCI-H838; test: as above; conditions: Homo sapiens, read-out: Growth IC50
# Protocol: as §1
smiles,measurement,setting,value
"NS(=O)(=O)c1ccc(S(=O)(=O)Nc2cccc3c(Cl)c[nH]c23)cc1 [Indisulam, N-(3-chloro-1H-indol-7-yl)benzene-1,4-disulfonamide]",cell lines with growth IC50 shifts ≥2-fold,[1]; MTAP-deficient cell lines,7/10
same,cell lines with growth IC50 shifts ≥2-fold,[1]; wild type cell lines,1/5
same,IC50,[2]; Cmpd A pre-treatment 150 nM,6080 nM
same,IC50,[2]; DMSO pre-treatment,8660 nM
same,IC50,"[3]; NCI-H2170, Cmpd A pre-treatment 80 nM",5550 nM
same,IC50,"[3]; NCI-H2170, DMSO pre-treatment",7170 nM
same,IC50,"[4]; SW900, Cmpd A pre-treatment 80 nM",1100 nM
same,IC50,"[4]; SW900, DMSO pre-treatment",2280 nM
same,IC50,"[5]; HuP-T4, Cmpd A pre-treatment 150 nM",549 nM
same,IC50,"[5]; HuP-T4, DMSO pre-treatment",1070 nM
same,IC50,"[6]; J82, Cmpd A pre-treatment 150 nM",7100 nM
same,IC50,"[6]; J82, DMSO pre-treatment",12500 nM
same,IC50,[7]; Cmpd A pre-treatment 150 nM,807 nM
same,IC50,[7]; DMSO pre-treatment,1830 nM
same,IC50,"[8]; NCI-H520, Cmpd A pre-treatment 80 nM",790 nM
same,IC50,"[8]; NCI-H520, DMSO pre-treatment",727 nM
same,IC50,"[9]; OE33, Cmpd A pre-treatment 150 nM",5370 nM
same,IC50,"[9]; OE33, DMSO pre-treatment",12100 nM
same,IC50,"[10]; NCI-H2228, Cmpd A pre-treatment 80 nM",191 nM
same,IC50,"[10]; NCI-H2228, DMSO pre-treatment",167 nM
same,IC50,"[11]; RT112/84, Cmpd A pre-treatment 150 nM",229 nM
same,IC50,"[11]; RT112/84, DMSO pre-treatment",913 nM
same,IC50,[12]; Cmpd A pre-treatment 150 nM,1270 nM
same,IC50,[12]; DMSO pre-treatment,864 nM
same,IC50,"[13]; NCI-H838, Cmpd A pre-treatment 20 nM",539 nM
same,IC50,"[13]; NCI-H838, Cmpd A pre-treatment 150 nM",342 nM
same,IC50,"[13]; NCI-H838, DMSO pre-treatment (control for 20 nM Cmpd A)",1050 nM
same,IC50,"[13]; NCI-H838, DMSO pre-treatment (control for 150 nM Cmpd A)",807 nM
